Measured values: ChEMBL document CHEMBL1201862, “PubChem BioAssay data set” (2004)
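Protocol summary: plate cells (96-well), add compound at 5 concentrations, incubate 48 h, interpolate endpoints linearly. At the GI50, growth is halved.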 Activity calls are given as the source filed them. Rule as the data show it: active = GI50 up to about 1.1 µM and inactive = higher.

Tests used:
Test in all cases: growth of human tumour cells (NCI), 48 h
IGROV-1 = tested on: IGROV-1
OVCAR-8 = tested on: OVCAR-8
ACHN = tested on: ACHN
UACC-62 = tested on: UACC-62
TK-10 = tested on: TK-10
HCT-116 = tested on: HCT-116
HOP-92 = tested on: HOP-92
NCI-H23 = tested on: NCI-H23
M14 = tested on: M14
KM12 = tested on: KM12
SW-620 = tested on: SW-620
SF-295 = tested on: SF-295
CCRF-CEM = tested on: CCRF-CEM
RXF 393 = tested on: RXF 393
SK-MEL-2 = tested on: SK-MEL-2
A498 = tested on: A498
HOP-62 = tested on: HOP-62
SK-MEL-28 = tested on: SK-MEL-28
U-251 = tested on: U-251
SNB-75 = tested on: SNB-75

SMILES | GI50 (IGROV-1) | GI50 (OVCAR-8) | GI50 (ACHN) | GI50 (UACC-62) | GI50 (TK-10) | GI50 (HCT-116) | GI50 (HOP-92) | GI50 (NCI-H23) | GI50 (M14) | GI50 (KM12) | GI50 (SW-620) | GI50 (SF-295) | GI50 (CCRF-CEM) | GI50 (RXF 393) | GI50 (SK-MEL-2) | GI50 (A498) | GI50 (HOP-62) | GI50 (SK-MEL-28) | GI50 (U-251) | GI50 (SNB-75)
CN(C)/N=C(/c1nc2ccc(Cl)cc2nc1O)C(O)c1ccc(C(O)/C(=N\N(C)C)c2nc3ccc(Cl)cc3nc2O)cc1 (configuration not stated) | > 100 µM (inactive) | > 100 µM (inactive) | > 100 µM (inactive) | > 100 µM (inactive) | > 100 µM (inactive) | > 100 µM (inactive) | 81.7 µM (inactive) | > 100 µM (inactive) | > 100 µM (inactive) | > 100 µM (inactive) | > 100 µM (inactive) | > 100 µM (inactive) | 6.43 µM (inactive) | > 100 µM (inactive) | > 100 µM (inactive) | 61 µM (inactive) | 93.1 µM (inactive) | > 100 µM (inactive) | – | –
O=c1c2ccccc2nc(-c2ccc(Br)cc2)n1NC1OC(CO)C(O)C(O)C1O (configuration not stated) | > 100 µM (inactive) | 91.4 µM (inactive) | > 100 µM (inactive) | 79.6 µM (inactive) | > 100 µM (inactive) | > 100 µM (inactive) | > 100 µM (inactive) | > 100 µM (inactive) | > 100 µM (inactive) | > 100 µM (inactive) | > 100 µM (inactive) | > 100 µM (inactive) | 32.8 µM (inactive) | – | > 100 µM (inactive) | > 100 µM (inactive) | > 100 µM (inactive) | > 100 µM (inactive) | > 100 µM (inactive) | 80.5 µM (inactive)
COc1cc(C)cc(OC)c1/C=C/C(=O)O | > 100 µM (inactive) | > 100 µM (inactive) | > 100 µM (inactive) | > 100 µM (inactive) | > 100 µM (inactive) | > 100 µM (inactive) | > 100 µM (inactive) | > 100 µM (inactive) | > 100 µM (inactive) | > 100 µM (inactive) | > 100 µM (inactive) | > 100 µM (inactive) | – | > 100 µM (inactive) | > 100 µM (inactive) | > 100 µM (inactive) | > 100 µM (inactive) | > 100 µM (inactive) | > 100 µM (inactive) | –
C=C1CC(C)(COc2ccc3c(C)c(C)c(=O)oc3c2C)OC1=O (configuration not stated) | 1.63 µM (inactive) | 2.11 µM (inactive) | 2.33 µM (inactive) | 1.27 µM (inactive) | 1.15 µM (inactive) | 0.879 µM (active) | 1.26 µM (inactive) | 1.82 µM (inactive) | 2.56 µM (inactive) | 4.54 µM (inactive) | 1.29 µM (inactive) | 5.19 µM (inactive) | 0.411 µM (active) | – | 2.01 µM (inactive) | 2.22 µM (inactive) | 12.5 µM (inactive) | 2.07 µM (inactive) | 6.56 µM (inactive) | 3.66 µM (inactive)
COc1cc(CO)c(CC(=O)NCCCc2ccccc2)cc1OC | > 100 µM (inactive) | > 100 µM (inactive) | > 100 µM (inactive) | > 100 µM (inactive) | > 100 µM (inactive) | > 100 µM (inactive) | > 100 µM (inactive) | > 100 µM (inactive) | > 100 µM (inactive) | 54.6 µM (inactive) | > 100 µM (inactive) | – | > 100 µM (inactive) | – | > 100 µM (inactive) | > 100 µM (inactive) | > 100 µM (inactive) | > 100 µM (inactive) | > 100 µM (inactive) | > 100 µM (inactive)
CSC(=N)N1N=C2/C(=C/c3ccccc3)CCC[C@H]2[C@H]1c1ccccc1 | 2.12 µM (inactive) | 10.8 µM (inactive) | 3.36 µM (inactive) | 10.9 µM (inactive) | 12.7 µM (inactive) | 2.83 µM (inactive) | 4.28 µM (inactive) | 4.88 µM (inactive) | 3.67 µM (inactive) | 9.84 µM (inactive) | 3.91 µM (inactive) | 4.69 µM (inactive) | 2.6 µM (inactive) | 2.86 µM (inactive) | 4.2 µM (inactive) | 4.11 µM (inactive) | 6.65 µM (inactive) | 3.13 µM (inactive) | 12 µM (inactive) | –
O=C(O)C1(Cc2ccc3c(c2)CCC3)Cc2cc3c(cc2C1)CCC3 | > 100 µM (inactive) | > 100 µM (inactive) | > 100 µM (inactive) | > 100 µM (inactive) | > 100 µM (inactive) | > 100 µM (inactive) | > 100 µM (inactive) | – | > 100 µM (inactive) | > 100 µM (inactive) | > 100 µM (inactive) | – | > 100 µM (inactive) | – | > 100 µM (inactive) | > 100 µM (inactive) | – | > 100 µM (inactive) | > 100 µM (inactive) | > 100 µM (inactive)
CNc1ccc2c(c1)[C@@]1(C)c3ccccc3[C@@H](C2)N1C | 48.9 µM (inactive) | – | 30.6 µM (inactive) | 16.4 µM (inactive) | 28.8 µM (inactive) | 16.1 µM (inactive) | 27.1 µM (inactive) | 22.6 µM (inactive) | 21.6 µM (inactive) | 22.4 µM (inactive) | 33.7 µM (inactive) | 29.6 µM (inactive) | 20.4 µM (inactive) | 20.3 µM (inactive) | 21.6 µM (inactive) | 26.4 µM (inactive) | 42.1 µM (inactive) | – | 20.4 µM (inactive) | –
CCOC(=O)c1csc(NC(=O)CCN2CCCCC2)n1 | > 100 µM (inactive) | > 100 µM (inactive) | > 100 µM (inactive) | > 100 µM (inactive) | > 100 µM (inactive) | – | > 100 µM (inactive) | > 100 µM (inactive) | > 100 µM (inactive) | – | > 100 µM (inactive) | > 100 µM (inactive) | > 100 µM (inactive) | > 100 µM (inactive) | > 100 µM (inactive) | > 100 µM (inactive) | > 100 µM (inactive) | > 100 µM (inactive) | > 100 µM (inactive) | –
C=C1Oc2nc3ccccc3c(=O)n2C1(C)C | > 100 µM (inactive) | > 100 µM (inactive) | > 100 µM (inactive) | > 100 µM (inactive) | > 100 µM (inactive) | > 100 µM (inactive) | > 100 µM (inactive) | > 100 µM (inactive) | > 100 µM (inactive) | > 10 µM (inactive) | > 100 µM (inactive) | > 10 µM (inactive) | > 100 µM (inactive) | – | > 100 µM (inactive) | > 100 µM (inactive) | > 100 µM (inactive) | > 100 µM (inactive) | > 100 µM (inactive) | –
BrP(NC1CCCCCC1)(c1ccccc1)(c1ccccc1)c1ccccc1 | 3.96 µM (inactive) | 2.9 µM (inactive) | 3.27 µM (inactive) | 3.03 µM (inactive) | 6.58 µM (inactive) | 4.74 µM (inactive) | – | 5.12 µM (inactive) | 12.4 µM (inactive) | 0.873 µM (active) | 3.09 µM (inactive) | 3.03 µM (inactive) | 2.97 µM (inactive) | 2.2 µM (inactive) | 2.44 µM (inactive) | 0.986 µM (active) | 8.79 µM (inactive) | 2.4 µM (inactive) | 3.55 µM (inactive) | –
